Laboratory results as given in paper PMC8976073 (Nature Communications, 2022).
Where a SMILES comes first, the peptide text is derived from it. The star is where a group is joined. For = O=C*

Tests used:
FPR2 [1] = biological target: T1, FPR2 (Homo sapiens, UniProt P25090); test: Competition binding: inhibition of WK(FITC)YMVm binding to FPR2 (wild type and mutants), HEK293F cells; conditions: FPR2 WT, mean ± SEM
T1 construct: expressed in transfected cells; host or cells: HEK293F cells, pTT5 vector, co-transfected with GαΔ6qi4myr (1:2 w/w)
T1 sequence (P25090 1-351): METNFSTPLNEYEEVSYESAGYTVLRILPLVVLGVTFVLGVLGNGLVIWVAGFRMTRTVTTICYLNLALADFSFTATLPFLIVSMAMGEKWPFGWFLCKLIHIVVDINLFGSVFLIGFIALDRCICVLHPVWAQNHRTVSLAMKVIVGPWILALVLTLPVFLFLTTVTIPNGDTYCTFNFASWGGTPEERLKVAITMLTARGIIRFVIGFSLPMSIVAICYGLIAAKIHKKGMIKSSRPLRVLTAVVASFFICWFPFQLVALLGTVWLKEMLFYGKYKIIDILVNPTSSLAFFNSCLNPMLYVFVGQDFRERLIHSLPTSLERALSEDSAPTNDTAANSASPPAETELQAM
Method: (§1) The genes of wild-type FPR1 and FPR2 and mutants with a Flag tag at the N termini were cloned into pTT5 vector (Invitrogen) and expressed in HEK293F cells (Invitrogen). Cells were harvested 48 h post transfection with 1 μg ml^−1 plasmid. Cell-surface expression of the receptors was measured by mixing 10 μl cells with 15 μl of TBS buffer supplemented with 4% BSA, 20% (v/v) viability-staining solution 7-AAD (Invitrogen, Cat#00-6993-50), and 0.1% (v/v) anti-FLAG M2-FITC antibody (Sigma, Cat#F4049) at 4 °C for 20 min. After incubation, 175 μl of TBS buffer was added and the fluorescent signal was measured using a flow-cytometry reader (Guava easyCyte HT, Millipore). Then, the cells were washed and resuspended to a final concentration of 1 × 10^6 cells per ml in Hanks’ Balanced Salt Solution (HBSS) buffer supplemented with 0.5% bovine serum albumin (BSA) and 20 mM HEPES, pH 7.4.
(§2) The mean fluorescent intensity of each well was then read by the FCM reader. Total binding and nonspecific binding were measured in the absence and presence of the unlabeled ligand (200 μM WKYMVm), respectively. […] Mean fluorescent-intensity values were measured by flow cytometry. Data were analyzed using Prism 8.0 (GraphPad software).

FPR2 [2] = biological target: T2, FPR2 (Homo sapiens, UniProt P25090, S211L); test: as above; conditions: FPR2 Construct 2, mean ± SEM
T2 construct: expressed in transfected cells; host or cells: HEK293F cells, pTT5 vector
Method: as §1, §2

FPR2 [3] = biological target: T1, FPR2; test: Inositol-phosphate (IP) accumulation assay, FPR2 (wild type and mutants) with chimeric GαΔ6qi4myr in HEK293F cells; format: cell-based; conditions: FPR2 WT; mean ± SEM; SEM
Method: Flag-tagged wild-type FPR1 and FPR2 and mutants were cloned into the pTT5 vector and expressed in HEK293F cells. Cells were cotransfected with the plasmids of receptor and a chimeric Gα protein GαΔ6qi4myr, which redirects the Gαi signaling pathway to the Gαq phospholipase-C pathway, at a ratio of 1:2 (w/w), and were harvested 48 h post transfection. The cell-surface expression was measured as described above.
The IP-One Gq assay kit (Cisbio Bioassays, 62IPAPEB) was used to measure the peptide agonist-induced IP production. […] Then, the cells were supplemented with 3 μl cryptate-labeled anti-IP1 monoclonal antibody (1:20 diluted in lysis and detection buffer) and 3 μl d2-labeled IP1, and incubated at room temperature for another 1 h. […] The accumulation of IP1, EC50, and pEC50 were calculated using nonlinear regression (curve fit) according to a standard dose–response curve in GraphPad Prism 8.0 (GraphPad software).

FPR2 [4] = conditions: cited from earlier work
Source text: The role of these residues in determining ligand selectivity was investigated by mutagenesis studies.

FPR1 = test: Competition binding: inhibition of WK(FITC)YMVm binding to FPR1 (wild type and mutants), HEK293F cells; set-up: species or system human; conditions: FPR1 F81L, F102H, Y257F and their combination
Method: as §1, §2

T2 sequence (P25090 with tags, fused parts or gaps S211L): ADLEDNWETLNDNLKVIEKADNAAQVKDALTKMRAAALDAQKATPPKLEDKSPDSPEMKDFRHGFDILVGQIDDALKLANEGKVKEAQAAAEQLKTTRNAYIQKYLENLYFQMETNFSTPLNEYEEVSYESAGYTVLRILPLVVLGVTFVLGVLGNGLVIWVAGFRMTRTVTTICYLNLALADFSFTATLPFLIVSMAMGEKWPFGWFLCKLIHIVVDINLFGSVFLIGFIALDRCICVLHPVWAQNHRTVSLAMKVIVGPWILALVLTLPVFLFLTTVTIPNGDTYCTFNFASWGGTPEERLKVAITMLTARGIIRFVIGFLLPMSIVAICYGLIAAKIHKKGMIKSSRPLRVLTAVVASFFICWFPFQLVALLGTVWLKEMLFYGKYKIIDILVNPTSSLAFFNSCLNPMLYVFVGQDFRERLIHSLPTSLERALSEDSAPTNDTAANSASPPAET

| Molecule | Ki (FPR2 [1]) [nM] | other results |
| --- | --- | --- |
| CC[C@H](C)[C@H](NC(=O)[C@H](CCC(=O)O)NC(=O)[C@H](CO)NC(=O)[C@@H](NC(=O)[C@H](CC(C)C)NC(=O)[C@H](CC(C)C)NC(=O)[C@H](CC(C)C)NC(=O)[C@H](CC(C)C)NC(=O)[C@H](CS)NC(=O)[C@H](CO)NC(=O)[C@H](Cc1ccccc1)NC(=O)CNC(=O)[C@H](CCCNC(=N)N)NC(=O)[C@@H]1CCCN1C(=O)[C@H](Cc1c[nH]c2ccccc12)NC(=O)[C@H](CCSC)NC=O)[C@@H](C)O)C(=O)N[C@@H](CC(=O)O)C(=O)N[C@@H](CC(C)C)C(=O)N1CCC[C@H]1C(=O)N[C@H](C(=O)N[C@@H](CCCCN)C(=O)N[C@@H](CCCNC(=N)N)C(=O)N[C@@H](CCCNC(=N)N)C(=O)N[C@@H](C)C(=O)O)C(C)C [A2W] (For-MWPRGFSCLLLLTSEIDLPVKRRA-OH) | 46.8 |  |
| CC[C@H](C)[C@H](NC(=O)[C@H](CCC(=O)O)NC(=O)[C@H](CO)NC(=O)[C@@H](NC(=O)[C@H](CC(C)C)NC(=O)[C@H](CC(C)C)NC(=O)[C@H](CC(C)C)NC(=O)[C@H](CC(C)C)NC(=O)[C@H](CS)NC(=O)[C@H](CO)NC(=O)[C@H](C)NC(=O)CNC(=O)[C@H](CCCNC(=N)N)NC(=O)[C@@H]1CCCN1C(=O)[C@H](C)NC(=O)[C@H](CCSC)NC=O)[C@@H](C)O)C(=O)N[C@@H](CC(=O)O)C(=O)N[C@@H](CC(C)C)C(=O)N1CCC[C@H]1C(=O)N[C@H](C(=O)N[C@@H](CCCCN)C(=O)N[C@@H](CCCNC(=N)N)C(=O)N[C@@H](CCCNC(=N)N)C(=O)N[C@@H](C)C(=O)O)C(C)C [F6A] (For-MAPRGASCLLLLTSEIDLPVKRRA-OH) | 100 |  |
| CC[C@H](C)[C@H](NC(=O)[C@H](CCC(=O)O)NC(=O)[C@H](CO)NC(=O)[C@@H](NC(=O)[C@H](CC(C)C)NC(=O)[C@H](CC(C)C)NC(=O)[C@H](CC(C)C)NC(=O)[C@H](CC(C)C)NC(=O)[C@H](CS)NC(=O)[C@H](CO)NC(=O)[C@H](Cc1ccccc1)NC(=O)CNC(=O)[C@H](CCCNC(=N)N)NC(=O)[C@H](C)NC(=O)[C@H](C)NC(=O)[C@H](CCSC)NC=O)[C@@H](C)O)C(=O)N[C@@H](CC(=O)O)C(=O)N[C@@H](CC(C)C)C(=O)N1CCC[C@H]1C(=O)N[C@H](C(=O)N[C@@H](CCCCN)C(=O)N[C@@H](CCCNC(=N)N)C(=O)N[C@@H](CCCNC(=N)N)C(=O)N[C@@H](C)C(=O)O)C(C)C [P3A] (For-MAARGFSCLLLLTSEIDLPVKRRA-OH) | 813 |  |
| CSCC[C@H](NC=O)C(=O)N[C@@H](CC(C)C)C(=O)N[C@@H](Cc1ccccc1)C(=O)O [fMLF, N-formyl–Met–Leu–Phe] |  | agonism at FPR2 (in words) (FPR2 [4]): weak agonist; effect of mutations on binding affinity (in words) (FPR1): little effect on the binding affinity |
| Humanin [HN] |  | agonistic activity FPR2 versus FPR1 (in words) (FPR2 [4]): much higher agonistic activity at FPR2 than at FPR1; fold higher binding affinity to FPR2 than Aβ42 (FPR2 [4]): over 15 fold |
| fMLFK [formylated tetrapeptide with a basic C-terminal residue] |  | binding to FPR2 (in words) (FPR2 [4]; compared with fMLFE): more favorable for binding to FPR2 |

The next lines start with results.

| Ki (FPR2 [1]) [nM] | Molecule | other results |
| --- | --- | --- |
| 631 | CC[C@H](C)[C@H](NC(=O)[C@H](CCC(=O)O)NC(=O)[C@H](CO)NC(=O)[C@@H](NC(=O)[C@H](CC(C)C)NC(=O)[C@H](C)NC(=O)[C@H](CC(C)C)NC(=O)[C@H](CC(C)C)NC(=O)[C@H](CS)NC(=O)[C@H](CO)NC(=O)[C@H](Cc1ccccc1)NC(=O)CNC(=O)[C@H](CCCNC(=N)N)NC(=O)[C@@H]1CCCN1C(=O)[C@H](C)NC(=O)[C@H](CCSC)NC=O)[C@@H](C)O)C(=O)N[C@@H](CC(=O)O)C(=O)N[C@@H](CC(C)C)C(=O)N1CCC[C@H]1C(=O)N[C@H](C(=O)N[C@@H](CCCCN)C(=O)N[C@@H](CCCNC(=N)N)C(=O)N[C@@H](CCCNC(=N)N)C(=O)N[C@@H](C)C(=O)O)C(C)C [L11A] (For-MAPRGFSCLLALTSEIDLPVKRRA-OH) |  |
| 832 | CC[C@H](C)[C@H](NC(=O)[C@H](CCC(=O)O)NC(=O)[C@H](CO)NC(=O)[C@@H](NC(=O)[C@H](C)NC(=O)[C@H](CC(C)C)NC(=O)[C@H](CC(C)C)NC(=O)[C@H](CC(C)C)NC(=O)[C@H](CS)NC(=O)[C@H](CO)NC(=O)[C@H](Cc1ccccc1)NC(=O)CNC(=O)[C@H](CCCNC(=N)N)NC(=O)[C@@H]1CCCN1C(=O)[C@H](C)NC(=O)[C@H](CCSC)NC=O)[C@@H](C)O)C(=O)N[C@@H](CC(=O)O)C(=O)N[C@@H](CC(C)C)C(=O)N1CCC[C@H]1C(=O)N[C@H](C(=O)N[C@@H](CCCCN)C(=O)N[C@@H](CCCNC(=N)N)C(=O)N[C@@H](CCCNC(=N)N)C(=O)N[C@@H](C)C(=O)O)C(C)C [L12A] (For-MAPRGFSCLLLATSEIDLPVKRRA-OH) |  |
| 282 | CC[C@H](C)[C@H](NC(=O)[C@H](CCC(=O)O)NC(=O)[C@H](CO)NC(=O)[C@@H](NC(=O)[C@H](CC(C)C)NC(=O)[C@H](CC(C)C)NC(=O)[C@H](CC(C)C)NC(=O)[C@H](CC(C)C)NC(=O)[C@H](CS)NC(=O)[C@H](CO)NC(=O)[C@H](Cc1ccccc1)NC(=O)CNC(=O)[C@H](C)NC(=O)[C@@H]1CCCN1C(=O)[C@H](C)NC(=O)[C@H](CCSC)NC=O)[C@@H](C)O)C(=O)N[C@@H](CC(=O)O)C(=O)N[C@@H](CC(C)C)C(=O)N1CCC[C@H]1C(=O)N[C@H](C(=O)N[C@@H](CCCCN)C(=O)N[C@@H](CCCNC(=N)N)C(=O)N[C@@H](CCCNC(=N)N)C(=O)N[C@@H](C)C(=O)O)C(C)C [R4A] (For-MAPAGFSCLLLLTSEIDLPVKRRA-OH) |  |
| 1410 | CC[C@H](C)[C@H](NC(=O)[C@H](CC(N)=O)NC(=O)[C@@H](NC(=O)[C@H](Cc1ccccc1)NC(=O)[C@H](Cc1ccc(O)cc1)NC(=O)[C@H](CCSC)NC=O)[C@@H](C)CC)C(=O)N[C@@H](CC(C)C)C(=O)N[C@H](C(=O)N[C@@H](CC(C)C)C(=O)O)[C@@H](C)O [fM9] (For-MYFINILTL-OH) | Ki (FPR2 [2]): 2630 nM; EC50 (FPR2 [3]): 813 nM |
